{"source": "patent US7850981B2", "about": "“Immuno-adjuvant PDT treatment of metastatic tumors” (QLT, Inc., priority 1999, dated 2010)", "key": {"B16-F1 melanoma": {"system": "B16-F1 melanoma", "experiment": "B16-F1 melanoma: PDT (verteporfin 1.0 mg/kg i.v., 100 J/cm^2) with or without intratumoral TITERMAX, then experimental pulmonary metastases", "type": "in vivo, C57BL/6 mice", "method": "Male, C57BL/6 mice were obtained from Charles River Canada (Montreal, QC) at 6 to 8 weeks of age. The B 16-F0 and B 16-F1 melanoma cell lines were obtained from the […] (ATC™) (Manassas, Va.) and grown as cell cultures in Dulbecco's Modified Eagle Medium (DMEM) (Gibco) supplemented with 10% fetal bovine serum (Sigma). The cells adhered to tissue culture plates, were removed for passage with 0.25% trypsin with 1.0 mM ethylenediaminetetraacetic acid (EDTA) (Gibco), and were cryo-preserved in liquid nitrogen in DMEM plus 40% FBS and 10% DMSO. Mice were injected with 5×10^5 tumor cells in a total volume of 50 μL subcutaneously into the shaved, right flank. The tumor size was monitored daily by measuring the diameter with vernier calipers and were treated when the tumors reached approximately 5 mm in diameter. […] Subsequently the B16-F1 cell line was used for all experiments.\nPDT treatment of mice bearing the B16-F1 tumor was performed as previously described for the M1 rhabdomyosarcoma mouse tumor (Richter et al., 1987; Richter et al., 1988; Richter et al., 1991). Each mouse was weighed, warmed under infrared light for less than 5 min to dilate the blood vessels, restrained, and injected intravenously (tail vein) with verteporfin at a concentration of 1.0 mg/kg body weight using a 28G needle. […] Following treatment, animals were monitored daily for tumor response. […]"}, "M1 (rhabdomyosarcoma)": {"system": "M1 (rhabdomyosarcoma)", "experiment": "Reimplantation of M1 tumor on Day 20 into tumor-free mice treated with PDT (verteporfin 1.0 mg/kg i.v. + light) with or without DETOX B-SE", "type": "in vivo", "conditions": "for Survival (tumour less than 1 cm long, not euthanized) / Tumor-take Rate: reimplanted Day 20", "text": "The thirty mice in treatment group 7 were implanted at the same time as those reimplanted on Groups 1-6 to provide a control for the rate of tumor-take. Ten mice were implanted on each of three separate batches of 10 mice to match the days of reimplantation of 1-6.\nHigh dose PDT gave approximately 60% fewer tumors (n=9), and this percentage was not changed by the addition of high dose immunoadjuvant (n=5). The lower dose of immunoadjuvant combined with high dose PDT gave more protection against rechallenge (20% take rate, n=6)."}, "[1]": {"conditions": "Optimal PDT (75 J/cm^2), n = 9, day 23 post-PDT"}, "[2]": {"conditions": "Optimal PDT (75 J/cm^2), n = 9, day 26 post-PDT"}, "[3]": {"conditions": "Optimal PDT (75 J/cm^2), n = 9, day 29 post-PDT"}, "[4]": {"conditions": "Optimal PDT (75 J/cm^2), n = 9, day 32 post-PDT"}, "[5]": {"conditions": "Optimal PDT (75 J/cm^2), n = 9, day 35 post-PDT"}, "[6]": {"conditions": "Optimal PDT (75 J/cm^2), n = 9, day 38 post-PDT"}, "[7]": {"conditions": "Optimal PDT (75 J/cm^2), n = 9, day 41 post-PDT"}, "[8]": {"conditions": "Optimal PDT (75 J/cm^2), n = 9, day 44 post-PDT"}, "[9]": {"conditions": "Optimal PDT (75 J/cm^2), n = 9, day 47 post-PDT"}, "[10]": {"conditions": "Optimal PDT (75 J/cm^2), n = 9, day 50 post-PDT"}, "[11]": {"conditions": "Sub-optimal PDT (25 J/cm^2), n = 7, day 23 post-PDT"}, "[12]": {"conditions": "Sub-optimal PDT (25 J/cm^2), n = 7, day 26 post-PDT"}, "[13]": {"conditions": "Sub-optimal PDT (25 J/cm^2), n = 7, day 29 post-PDT"}, "[14]": {"conditions": "Sub-optimal PDT (25 J/cm^2), n = 7, day 32 post-PDT"}, "[15]": {"conditions": "Sub-optimal PDT (25 J/cm^2), n = 7, day 35 post-PDT"}, "[16]": {"conditions": "Sub-optimal PDT (25 J/cm^2), n = 7, day 38 post-PDT"}, "[17]": {"conditions": "Sub-optimal PDT (25 J/cm^2), n = 7, day 41 post-PDT"}, "[18]": {"conditions": "Sub-optimal PDT (25 J/cm^2), n = 7, day 44 post-PDT"}, "[19]": {"conditions": "Sub-optimal PDT (25 J/cm^2), n = 7, day 47 post-PDT"}, "[20]": {"conditions": "Sub-optimal PDT (25 J/cm^2), n = 7, day 50 post-PDT"}}, "note": "Marks after values point to notes of the source that are not given here."}
{"substance": "benzoporphyrin derivative monoacid ring A [verteporfin]", "values": [{"measurement": "animals that required repeated treatment to complete the tumor cure", "setting": "B16-F1 melanoma; of five animals per group, subcutaneous B16-F1 tumor", "result": 3}, {"measurement": "lung colonies", "setting": "B16-F1 melanoma; one of the 5 animals treated with PDT alone, 14 days after i.v. tumor cells", "result": 6}, {"measurement": "fewer tumors upon reimplantation than in untreated naïve mice", "setting": "M1 (rhabdomyosarcoma); High dose PDT (75 J/cm^2), n=9", "result": "approximately 60%"}, {"measurement": "protection against rechallenge relative to controls", "setting": "M1 (rhabdomyosarcoma); Low dose PDT alone (25 J/cm^2), superior to low dose PDT combined with low-dose adjuvant", "result": "substantial protection"}, {"measurement": "Survival (tumour less than 1 cm long, not euthanized)", "setting": "M1 (rhabdomyosarcoma); [1]", "result": 100, "unit": "%"}, {"measurement": "Tumor-take Rate", "setting": "M1 (rhabdomyosarcoma); [1]", "result": 0, "unit": "%"}, {"measurement": "Survival (tumour less than 1 cm long, not euthanized)", "setting": "M1 (rhabdomyosarcoma); [2]", "result": 100, "unit": "%"}, {"measurement": "Tumor-take Rate", "setting": "M1 (rhabdomyosarcoma); [2]", "result": "44^d %"}, {"measurement": "Survival (tumour less than 1 cm long, not euthanized)", "setting": "M1 (rhabdomyosarcoma); [3]", "result": 100, "unit": "%"}, {"measurement": "Tumor-take Rate", "setting": "M1 (rhabdomyosarcoma); [3]", "result": "44^c %"}, {"measurement": "Survival (tumour less than 1 cm long, not euthanized)", "setting": "M1 (rhabdomyosarcoma); [4]", "result": 100, "unit": "%"}, {"measurement": "Tumor-take Rate", "setting": "M1 (rhabdomyosarcoma); [4]", "result": "44^c %"}, {"measurement": "Survival (tumour less than 1 cm long, not euthanized)", "setting": "M1 (rhabdomyosarcoma); [5]", "result": "89^c %"}, {"measurement": "Tumor-take Rate", "setting": "M1 (rhabdomyosarcoma); [5]", "result": "44^c %"}, {"measurement": "Survival (tumour less than 1 cm long, not euthanized)", "setting": "M1 (rhabdomyosarcoma); [6]", "result": 89, "unit": "%"}, {"measurement": "Tumor-take Rate", "setting": "M1 (rhabdomyosarcoma); [6]", "result": "44^c %"}, {"measurement": "Survival (tumour less than 1 cm long, not euthanized)", "setting": "M1 (rhabdomyosarcoma); [7]", "result": 89, "unit": "%"}, {"measurement": "Tumor-take Rate", "setting": "M1 (rhabdomyosarcoma); [7]", "result": "44^c %"}, {"measurement": "Survival (tumour less than 1 cm long, not euthanized)", "setting": "M1 (rhabdomyosarcoma); [8]", "result": 78, "unit": "%"}, {"measurement": "Tumor-take Rate", "setting": "M1 (rhabdomyosarcoma); [8]", "result": "44^c %"}, {"measurement": "Survival (tumour less than 1 cm long, not euthanized)", "setting": "M1 (rhabdomyosarcoma); [9]", "result": 56, "unit": "%"}, {"measurement": "Tumor-take Rate", "setting": "M1 (rhabdomyosarcoma); [9]", "result": "44^c %"}, {"measurement": "Survival (tumour less than 1 cm long, not euthanized)", "setting": "M1 (rhabdomyosarcoma); [10]", "result": 56, "unit": "%"}, {"measurement": "Tumor-take Rate", "setting": "M1 (rhabdomyosarcoma); [10]", "result": "44^c %"}, {"measurement": "Survival (tumour less than 1 cm long, not euthanized)", "setting": "M1 (rhabdomyosarcoma); [11]", "result": 100, "unit": "%"}, {"measurement": "Tumor-take Rate", "setting": "M1 (rhabdomyosarcoma); [11]", "result": 0, "unit": "%"}, {"measurement": "Survival (tumour less than 1 cm long, not euthanized)", "setting": "M1 (rhabdomyosarcoma); [12]", "result": 100, "unit": "%"}, {"measurement": "Tumor-take Rate", "setting": "M1 (rhabdomyosarcoma); [12]", "result": 43, "unit": "%"}, {"measurement": "Survival (tumour less than 1 cm long, not euthanized)", "setting": "M1 (rhabdomyosarcoma); [13]", "result": 100, "unit": "%"}, {"measurement": "Tumor-take Rate", "setting": "M1 (rhabdomyosarcoma); [13]", "result": 43, "unit": "%"}, {"measurement": "Survival (tumour less than 1 cm long, not euthanized)", "setting": "M1 (rhabdomyosarcoma); [14]", "result": 100, "unit": "%"}, {"measurement": "Tumor-take Rate", "setting": "M1 (rhabdomyosarcoma); [14]", "result": 43, "unit": "%"}, {"measurement": "Survival (tumour less than 1 cm long, not euthanized)", "setting": "M1 (rhabdomyosarcoma); [15]", "result": 100, "unit": "%"}, {"measurement": "Tumor-take Rate", "setting": "M1 (rhabdomyosarcoma); [15]", "result": 43, "unit": "%"}, {"measurement": "Survival (tumour less than 1 cm long, not euthanized)", "setting": "M1 (rhabdomyosarcoma); [16]", "result": 100, "unit": "%"}, {"measurement": "Tumor-take Rate", "setting": "M1 (rhabdomyosarcoma); [16]", "result": 43, "unit": "%"}, {"measurement": "Survival (tumour less than 1 cm long, not euthanized)", "setting": "M1 (rhabdomyosarcoma); [17]", "result": 100, "unit": "%"}, {"measurement": "Tumor-take Rate", "setting": "M1 (rhabdomyosarcoma); [17]", "result": 29, "unit": "%"}, {"measurement": "Survival (tumour less than 1 cm long, not euthanized)", "setting": "M1 (rhabdomyosarcoma); [18]", "result": 86, "unit": "%"}, {"measurement": "Tumor-take Rate", "setting": "M1 (rhabdomyosarcoma); [18]", "result": 29, "unit": "%"}, {"measurement": "Survival (tumour less than 1 cm long, not euthanized)", "setting": "M1 (rhabdomyosarcoma); [19]", "result": 86, "unit": "%"}, {"measurement": "Tumor-take Rate", "setting": "M1 (rhabdomyosarcoma); [19]", "result": 29, "unit": "%"}, {"measurement": "Survival (tumour less than 1 cm long, not euthanized)", "setting": "M1 (rhabdomyosarcoma); [20]", "result": 86, "unit": "%"}, {"measurement": "Tumor-take Rate", "setting": "M1 (rhabdomyosarcoma); [20]", "result": 29, "unit": "%"}]}
